Earlier results in patent US8912192B2, “Extended release preparation” (Taisho Pharmaceutical Co., Ltd, priority 2010, dated 2014).
Where a name gives a salt, the structure may show the parent alone. Read-outs that look alike come from different tables or passages of the source.

Assays:
[1] = tested on: phosphodiesterase III enzymes; conditions: compound A or a pharmaceutically acceptable salt thereof
[2] = preparation containing a pharmaceutically acceptable salt of compound A, oral, dogs, fasting state
[3] = pharmaceutically acceptable salt of compound A

## O=c1[nH]nc(OCCCc2ccc(Cl)cc2)c(NCc2cccnc2)c1Br [compound A, 4-bromo-6-[3-(4-chlorophenyl)propoxy]-5-(3-pyridylmethylamino)-3(2H)-pyridazinone]
[1]
  inhibitory effect against phosphodiesterase III enzymes: has an inhibitory effect against phosphodiesterase III enzymes
Blood plasma
  half-life period in blood plasma: about 1.5 hours
[2]
  bioavailability: about 10%
[3]; around neutral pH range similar to enteric environment
  solubility in water: quite poorly soluble
[3]; pH range of about 4.0 or higher
  solubility in water: decreases its solubility in water

## CC(N)C(O)c1ccccc1 (stereo not drawn) [phenylpropanolamine hydrochloride, reference compound]
In vivo
  half-life period: 4 h
